Values belong to the compound of their own block, whether it stands above or below them.
Assays:
[1] = tested on: contractions induced by AII (isolated rabbit aorta rings); assay: Inhibition of the vascular contraction in isolated rabbit aorta rings in vitro, contractions induced by angiotensin II; type: cell-based; conditions: Oryctolagus cuniculus, based on the 3rd = submaximal agonist concentration, read-out: IC50 against contractions induced by: AII
Method: Rabbits of either sex are stunned by a blow to the back of the head and bled out, or in some cases anaesthetized with Nembutal (about 60-80 mg/kg i.v.) and sacrificed by opening the thorax. The thoracic aorta is removed, freed from adhering connective tissue, divided into ring segments 1.5 mm wide and individually transferred under an initial loading of about 3.5 g to 10 ml organ baths containing Krebs-Henseleit nutrient solution, aerated with 95% O2 /5% CO2 and temperature-controlled at 37° C., of the following composition: 119 mmol/l of NaCl; 2.5 mmol/l of CaCl2 ×2H2 O; 1.2 mmol/l of KH2 PO4; 10 mmol/l of glucose; 4.8 mmol/l of KCl; 1.4 mmol/l of MgSO4 ×7H2 O and 25 mmol/l of NaHCO3.
The contractions are determined isometrically by means of Statham UC2 cells via bridge amplifiers (ifd Mulheim or DSM Aalen) and digitalized by means of A/D converters (System 570, Keithley Munich) and assessed. The agonist dose response curves (DRCs) are plotted hourly. With each DRC, 3 or 4 individual concentrations are applied to the baths =at a 4 min interval. […]
The height of the 3rd DRC, in a normal case, is used as a reference quantity for the assessment of the test substance to be investigated in further runs, which substance is applied to the baths in the following DRCs in each case in increasing dose at the start of the incubation period. […]

Angiotensin II Receptor = molecular target: T1, Angiotensin II Receptor (Bos taurus, UniProt P25104); assay: Interaction with the angiotensin II receptor in membrane fractions of the adrenal gland cortex (bovine), 3H-angiotensin II binding; conditions: 3H-angiotensin II (3-5 nM), bovine adrenal gland cortex membranes, 60 min at room temperature, pH 7.2
T1 construct: Adrenal gland cortices from cattle (AGCs), which have been freshly removed and carefully freed from gland medulla; from tissue; host or cells: bovine adrenal gland cortex, partially purified membrane fractions
T1 sequence (P25104 1-359): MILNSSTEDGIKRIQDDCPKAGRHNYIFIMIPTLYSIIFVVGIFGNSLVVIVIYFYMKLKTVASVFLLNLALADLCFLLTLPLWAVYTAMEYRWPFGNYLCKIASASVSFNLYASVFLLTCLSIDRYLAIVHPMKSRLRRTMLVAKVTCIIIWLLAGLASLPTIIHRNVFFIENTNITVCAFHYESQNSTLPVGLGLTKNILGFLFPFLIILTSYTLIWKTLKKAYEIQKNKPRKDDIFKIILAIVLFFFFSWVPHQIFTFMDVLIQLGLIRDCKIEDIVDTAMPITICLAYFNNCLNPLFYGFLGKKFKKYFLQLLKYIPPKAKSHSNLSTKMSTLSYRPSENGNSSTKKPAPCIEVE
Method: Adrenal gland cortices from cattle (AGCs), which have been freshly removed and carefully freed from gland medulla, are comminuted in sucrose solution (0.32M) with the aid of an Ultra-Turrax (Janke & Kunkel, Staufen i.B.) to give a coarse membrane homogenate and partially purified to give membrane fractions in two centrifugation steps.
The receptor binding investigations are carried out on partially purified membrane fractions of bovine AGC using radioactive angiotensin II in an assay volume of 0.25 ml, which specifically contains the partially purified membranes (50-80 μg), ^3 H-angiotensin II (3-5 nM), test buffer solution (50 mM Tris, pH 7.2, 5 mM MgCl2) and the substances to be investigated. After an incubation period of 60 min at room temperature, the unbound radioactivity of the samples is separated by means of moistened glass fiber filters (Whatman GF/C) and the bound radioactivity is measured […] in a scintillation cocktail after washing the protein with ice-cold buffer solution (50 mM Tris/HCl, pH 7.4, 5% PEG 6000). The raw data were analysed using computer programs to give Ki or IC50 values (Ki : IC50 values corrected for the radioactivity used; IC50 values: concentration at which the substance to be investigated causes a 50% inhibition of the specific binding of the radioligand).

smooth muscle cells = assay: Inhibition of the proliferation of smooth muscle cells (3H-thymidine incorporation); type: cell-based; conditions: rat aortic smooth muscle cells, stimulated by 10% FCS
Method: To determine the antiproliferative action of the compounds, smooth muscle cells are used which are obtained from the aortas of rats by the media explant technique [R. Ross, J. Cell. Biol. 50., 172, 1971]. The cells are inoculated into suitable culture dishes, as a rule 96-hole plates, and cultured at 37° C. in 5% CO2 for 2-3 days in medium 199 containing,7.5% FCS and 7.59% NCS, 2 mM L-glutamine and 15 mM HEPES, pH 7.4. The cells are then synchronized for 2-3 days by withdrawal of serum and then stimulated into growth using serum or other factors. Test compounds are simultaneously added. After 16-20 hours, 1 μCi ^3 H-thymidine is added and after a further 4 hours the incorporation of this substance into the TCA-precipitable DNA of the cells is determined. To determine the IC50 values, the active compound concentration is calculated which, on sequential dilution of the active compound, causes semi-maximum inhibition of the thymidine incorporation produced by 10% FCS.

IC50 [1]: 260 nM
Ki (Angiotensin II Receptor): 47 nM
SMILES: CC(C)(C)OC(=O)[C@@H]1CCCC[C@H]1c1ccc(Cn2c(-c3ccccc3)nc3cccnc32)cc1 (relative stereo) [Example 9]

SMILES: O=C(N[C@H](CO)c1ccccc1)C1CCCCC1c1ccc(Cn2c(C3CC3)nc3cccnc32)cc1 (single isomer, unassigned) [Example 16]
IC50 (smooth muscle cells): 410 nM

SMILES: O=C(N[C@H](CO)c1ccccc1)C1CCCCC1c1ccc(Cn2c(C3CC3)nc3cccnc32)cc1 (single isomer, unassigned) [Example 17]
IC50 (smooth muscle cells): 2 nM

SMILES: NC(=O)C(NC(=O)C1CCCCC1c1ccc(Cn2c(C3CC3)nc3cccnc32)cc1)c1ccccc1 (single isomer, unassigned) [Example 21]
IC50 (smooth muscle cells; Rattus norvegicus): 7 nM

SMILES: O=C(N[C@H](CO)c1ccccc1)C1CCCCC1c1ccc(Cn2c(-c3ccccc3)nc3cccnc32)cc1 (stereo partly shown) [Example 25]
IC50 (smooth muscle cells; Rattus norvegicus): 26 nM

SMILES: CCCCc1nc2cc(Br)cnc2n1Cc1ccc(C2CCCCC2C(=O)N[C@H](CO)c2ccccc2)cc1 (stereo partly shown) [Example 29]
IC50 (smooth muscle cells; Rattus norvegicus): 4 nM

IC50 [1]: 220 nM
Ki (Angiotensin II Receptor): 19 nM
SMILES: CCCCc1nc2ccccc2n1Cc1ccc(C2CCCCC2C(=O)N[C@H](CO)c2ccccc2)cc1 (stereo partly shown) [Example 30]

SMILES: CCCCc1nc2ccccc2n1Cc1ccc(C2CCCCC2C(=O)N[C@H](CO)c2ccccc2)cc1 (stereo partly shown) [Example 31]
IC50 (smooth muscle cells; Rattus norvegicus): 3 nM
